Results reported in patent US11653649B2, “Antimicrobial composition including a dihydroxamic acid and methods of inhibiting microbial growth utilizing the same” (Kimberly-Clark Worldwide, Inc., priority 2017, dated 2023).
Marks after values point to notes of the source that are not given here.

Legend:
[1] = Determination of Aqueous Solubility (pH-4.5) by Miniaturized Shake Flask Method; assay type: physicochemical; details: ultrapure water pH 4.5, 22° C., highest test concentration 1% w/v
Experimental: Determination of Aqueous Solubility (pH-4.5) by Miniaturized Shake Flask Method
Test Media: Ultrapure water (pH-4.5) (18MΩDl water)
Test Concentration: 10 mg/ml
Incubation Details: 22° C. +/−3° C.
Method of Analysis: Photometric analysis using Microplate reader
Data Output: Aqueous Solubility
Required volume of ultrapure water (˜75 mL) was taken and pH was adjusted to 4.5 using citrate buffer (pH-4.5). This water was used as a test media for determining the solubility of test/reference items.
Solubility Testing by Shake Flask Method
The solubility of test items were determined at a highest test concentration of 1% w/v (10 mg/mL).
40 mg of test items were weighed into tubes.
4 mL of Ultrapure water was added to all tubes to get a concentration of 10 mg/mL (1% w/v).
The initial pH of the solubility samples were recorded. […] Then, the solution were observed visually for any precipitation.
The visually soluble samples were centrifuged at 10000 rpm for 10 minutes at room temperature (22° C.±3° C.).
An aliquot of the supernatant were diluted with equal volume of methanol. The samples were further diluted in methanol: water (50:50) to obtain dilution of 1:2, 1:4, 1:16, 1:32 etc.
The samples were then transferred to UV plate and scanned at Amax of that particular test/reference item.

[2] = system: Burkholderia cepacia (ATCC 25416); assay: Anti-bacterial MIC, microbroth dilution; assay type: cell-based; details: pH 4.5, CAMHB, 37° C., 24 hours
Experimental: (§1) Method: Microbroth Dilution Method (96-well format).
(§2) Solvent: Sterile MilliQ water and 0.1 M Citrate Buffer pH 4.5
(§3) Media used: • Bacterial: Cation-Adjusted Mueller-Hinton Broth (CAMHB) • Fungi: RPMI-1640
(§4) Bacteria • Incubation Temperature: 37° C. • Incubation Time: 24 hours • Inoculum Size: 5×10(5) cfu/mL • Strains: • Staphylococcus aureus (ATCC 6538) • Escherichia coli (ATCC 8739) • Pseudomonas aeruginosa (ATCC 9027) • Burkholderia cepacia (ATCC 25416)
(§5) Fungi: • Incubation Temperature: • 25° C. (Candida albicans) • 35° C. […] . All solubilized and pH 4.5-adjusted test compounds were filter-sterilized before subjecting to MIC study. Positive control was also dissolved in the similar way. […] All the strains were inoculated on their respective agar medium and incubated under conditions/durations detailed above. • Preparation of inoculum: • The bacterial colony suspension in 0.85% saline was adjusted to 1 McFarland's standard using Densimat which was further diluted to 1:100 in CAMHB. The fungal suspension for inoculation was prepared in 0.85% saline from 6 days old culture (for mold, A. brasiliensis) and from 2 days old culture (for yeast, C. albicans) from Sabouraud Dextrose agar medium. Culture was scrapped/scooped from the plate, suspended in saline and the spores/cells counted using haemocytometer to provide a final inoculum of 5×10^4 cfu/mL. • 96-well Plate Preparation: • Minimum inhibitory concentration (MIC) is performed to determine potency of test compounds along with standard antibiotics against bacterial strains. Micro titer plates were prepared as per the CLSI recommendations. One hundred and seventy five microliters of Cation-adjusted Muller Hinton Broth (CAMHB) was added to the first column of a 96 well flat bottom plate, which is the media control. Second column is for the stocks of the test compounds and reference standards from which dilutions are made. Then 175 μL of CAMHB was added to the 5th, 8th and 11th columns, 75 μL of CAMHB to the 4th, 7th and 10th columns and 50 μL of CAMHB to the 3rd, 6th and 9th columns and the last column was the organism control. Antimicrobial Efficacy Testing

[3] = system: Escherichia coli (ATCC 8739); assay: Anti-bacterial MIC, microbroth dilution; assay type: cell-based; details: pH 4.5, CAMHB, 37° C., 24 hours
Experimental: as §1, §2, §3, §4, §5

[4] = system: Pseudomonas aeruginosa (ATCC 9027); assay: Anti-bacterial MIC, microbroth dilution; assay type: cell-based; details: for MIC v. P. aeruginosa: Tables 4 and 5, rounded values, wt %; for MIC (%) P. aeruginosa: pH 4.5, CAMHB, 37° C., 24 hours
Experimental: as §1, §2, §3, §4, §5

[5] = system: Staphylococcus aureus (ATCC 6538); assay: Anti-bacterial MIC, microbroth dilution; assay type: cell-based; details: pH 4.5, CAMHB, 37° C., 24 hours
Experimental: as §1, §2, §3, §4, §5

[6] = system: Aspergillus brasiliensis (ATCC 16404); assay: Anti-fungal MIC, microbroth dilution; assay type: cell-based; details: pH 4.5, RPMI-1640, 35° C., 48 hours
Experimental: as §1, §2, §3, §5

[7] = system: Candida albicans (ATCC 10231); assay: Anti-fungal MIC, microbroth dilution; assay type: cell-based; details: pH 4.5, RPMI-1640, 25° C., 48 hours
Experimental: as §1, §2, §3, §5

[8] = system: various bacteria and fungi; assay: Antimicrobial Efficacy Testing (USP 51), overall outcome; assay type: cell-based; details: USP 51, 28 days
Text: The Antimicrobial Efficacy Testing discussed herein was completed pursuant to the standard antimicrobial effectiveness test from Chapter 51 of the United States Pharmacopeia (USP 51), in which an antimicrobial composition can be tested against at least five microorganisms, including bacteria and fungi. In the Antimicrobial Efficacy Testing conducted herein, the following bacteria were utilized: Staphylococcus aureus, Escherichia coli, Pseudomonas aeruginosa, and Burkholderia cepacia; and the following fungi were utilized: Candida albicans, and Aspergillus brasiliensis. While one of ordinary skill in the art could replicate such Antimicrobial Efficacy Testing by completing USP 51 protocol, a brief summary was that each antimicrobial composition sample was tested against each microorganism being held at room temperature over the course of 28 days, with each sample being evaluated at specific intervals at the beginning of the Testing (initial), day 7, day 14, and day 28. The test sample colonies were counted at each interval to determine the number of surviving microorganisms. The log reduction of each microorganism at each interval was reported. The effectiveness of the antimicrobial agent sample was based on the USP 51 passing criteria.

Row | Compound | Solubility (wt %) [1] [wt %] | MIC (%) B. cepacia [2] | MIC (%) E. coli [3] | MIC v. P. aeruginosa [4] | MIC (%) P. aeruginosa [4] | MIC (%) S. Aureus [5] | MIC (%) A. brasiliensis [6] | MIC (%) C. albicans [7] | Antimicrobial Efficacy Testing outcome (inhibiting growth of various bacteria and fungi) [8]
1 | O=C(CCC(=O)NO)NO [Compound No. 8, N, N′-dihydroxysuccinamide] | >1.00 | 0.031% | 0.031% | 0.06% | 0.0625% | 0.016% | 0.031% | 0.25% | –
2 | O=[N+]([O-])C(Br)(CO)CO [2-Bromo-2-Nitropropane-1,3-Diol, reference compound] | – | – | – | 0.00% | – | – | – | – | –
3 | O=C(O)c1ccccc1 [Benzoic Acid, reference compound] | – | – | – | 0.07% | – | – | – | – | –
4 | CCCCCCCCCCCC(=O)NO [compound 2, Laurylhydroxamic Acid] | 0.0022 | >0.0011* % | >0.0011* % | – | >0.0011* % | >0.0011* % | >0.0011* % | >0.0011* % | –
5 | Cn1sccc1=O [Methylisothiazolinone, reference compound] | – | – | – | 0.00% | – | – | – | – | –
6 | O=C(CC(O)C(=O)NO)NO (stereo not shown) [Compound No. 7, N, N′, 2-trihydroxy butane diamide] | >1.00 | 0.016% | 0.016% | 0.03% | 0.031% | 0.008% | 0.008% | 0.008% | –
7 | O=C(CCCCCCC(=O)NO)NO [Compound No. 9, N, N′-dihydroxyoctanediamide] | 0.248 | >0.124* % | >0.124* % | >0.12%* | >0.124* % | >0.124* % | >0.124* % | >0.124* % | did not pass
8 | CCCCCCCCCC(=O)NO [Compound No. 3, Decylhydroxamic Acid] | 0.0025 | >0.00125* % | >0.00125* % | >0.00125%* | >0.00125* % | >0.00125* % | >0.00125* % | >0.00125* % | –
9 | CCCCCC(=O)NO [Compound No. 1, Hexylhydroxamic Acid] | >1.00 | 0.0625% | 0.125% | 0.06% | 0.0625% | 0.25% | 0.008% | 0.031% | –
10 | CCCCCCCC(=O)NO [Caprylhydroxamic Acid, reference compound] | 0.1358 | 0.017% | 0.017% | 0.07% | 0.0679% | 0.034% | 0.004% | 0.008% | –
11 | O=C(NO)c1ccccc1 [Compound No. 5, Benzhydroxamic Acid] | >1.00 | 0.125% | 0.25% | 0.06% | 0.0625% | 0.125% | 0.016% | 0.031% | –
12 | COC(=O)c1ccc(O)cc1 [Methylparaben, reference compound] | – | – | – | 0.20% | – | – | – | – | –
13 | Propylhydroxamic Acid [reference compound] | – | – | – | 0.50% | – | – | – | – | –
14 | CC(=O)C1C(=O)C=C(C)OC1=O (stereo not shown) [Dehydroacetic Acid, reference compound] | – | – | – | 2.00% | – | – | – | – | –
15 | O=C(NO)c1ccc(O)cc1 [Compound No. 6, p-hydroxy Benzhydroxamic Acid] | >1.00 | 0.031% | 0.0625% | 0.06% | 0.0625% | 0.125% | 0.25% | >1.00* % | –
16 | O=C(NCO)N(CO)C1(CO)C(=O)NC(=O)N1CO (stereo not shown) [Diazolidinyl Urea, reference compound] | – | – | – | 0.10% | – | – | – | – | –
17 | OCCc1ccccc1 [Phenethyl Alcohol, reference compound] | – | – | – | 0.41% | – | – | – | – | –
18 | CC1(C)C(=O)N(CO)C(=O)N1CO [DMDM Hydantoin, reference compound] | – | – | – | 0.02% | – | – | – | – | –
19 | OCc1ccccc1 [Benzyl Alcohol, reference compound] | – | – | – | 0.35% | – | – | – | – | –
